Measurements taken from ChEMBL document CHEMBL6109077, “Design, synthesis and in vitro validation of bivalent binders of SARS-CoV-2 spike protein: Obeticholic, betulinic and glycyrrhetinic acids as building blocks” (Bioorg Med Chem, 2025).
Active and inactive are the calls of the source. The rule behind the calls is not given here.

What was measured:
293T/ACE2 [1] = assay: Inhibition of spike protein Omicron BA.2 mutant in pseudotyped SARS-CoV-2 infected in 293T/ACE2 cells assessed as reduction in viral entry at 10 uM preincubated with virus for 1 hr followed by cell infection and measured after 48 hrs by bright-glo luciferase reporter gene assay; format: cell-based; conditions: Severe acute respiratory syndrome coronavirus 2, time 49.0 hrs
293T/ACE2 [2] = assay: Inhibition of spike protein D614G mutant in pseudotyped SARS-CoV-2 infected in 293T/ACE2 cells assessed as reduction in viral entry at 10 uM preincubated with virus for 1 hr followed by cell infection and measured after 48 hrs by bright-glo luciferase reporter gene assay; format: cell-based; conditions: Severe acute respiratory syndrome coronavirus 2, time 49.0 hrs

SMILES | inhibition (293T/ACE2 [1]) | inhibition (293T/ACE2 [2])
CC[C@H]1[C@@H](O)[C@@H]2[C@H](CC[C@]3(C)[C@@H]([C@H](C)CCC(=O)NCCCCCCn4cc(CCCCC(=O)O[C@H]5CC[C@H]6[C@@H](CC[C@]7(C)[C@@H]6C(=O)C=C6[C@@H]8C[C@@](C)(C(=O)OC)CC[C@]8(C)CC[C@]67C)C5(C)C)nn4)CC[C@@H]23)[C@@]2(C)CC[C@@H](O)C[C@@H]12 | inactive | inactive
CC1(C)[C@@H](O)CC[C@]2(C)[C@H]3C(=O)C=C4[C@@H]5C[C@@](C)(C(=O)O)CC[C@]5(C)CC[C@@]4(C)[C@]3(C)CC[C@@H]12 | Not active; No Statistically Significant Decrease Observed | Not active; No Statistically Significant Decrease Observed
C=C(C)[C@@H]1CC[C@]2(C(=O)OC)CC[C@@]3(C)[C@@H]4CC[C@@H]5[C@H](CC[C@H](OC(=O)CCCCc6cn(CCCCCCNC(=O)CC[C@@H](C)[C@H]7CC[C@H]8[C@@H]9[C@H](O)[C@H](CC)[C@@H]%10C[C@H](O)CC[C@]%10(C)[C@H]9CC[C@]78C)nn6)C5(C)C)[C@H]4CC[C@@H]3[C@@H]12 | Active; Significant Effect Observed | inactive
C=C(C)[C@@H]1CC[C@]2(C(=O)OC)CC[C@]3(C)[C@H](CC[C@@H]4[C@@]5(C)CC[C@H](OC(=O)CCCNC(=O)CC[C@@H](C)[C@H]6CC[C@H]7[C@@H]8[C@H](O)[C@H](CC)[C@@H]9C[C@H](O)CC[C@]9(C)[C@H]8CC[C@]67C)C(C)(C)[C@@H]5CC[C@]43C)[C@@H]12 | Active; Statistically Significant Effect Observed | Active; Statistically Significant Effect Observed
C=C(C)[C@@H]1CC[C@]2(C(=O)O)CC[C@]3(C)[C@H](CC[C@@H]4[C@@]5(C)CC[C@H](O)C(C)(C)[C@@H]5CC[C@]43C)[C@@H]12 | Not active; No Statistically Significant Decrease Observed | Not active; No Statistically Significant Decrease Observed
C=C(C)[C@@H]1CC[C@]2(C(=O)OC)CC[C@]3(C)[C@H](CC[C@@H]4[C@@]5(C)CC[C@H](OC(=O)CCCCCCCCNC(=O)CC[C@@H](C)[C@H]6CC[C@H]7[C@@H]8[C@H](O)[C@H](CC)[C@@H]9C[C@H](O)CC[C@]9(C)[C@H]8CC[C@]67C)C(C)(C)[C@@H]5CC[C@]43C)[C@@H]12 | Active; Statistically Significant Effect Observed | Active; Statistically Significant Effect Observed
CC[C@H]1[C@@H](O)[C@@H]2[C@H](CC[C@]3(C)[C@@H]([C@H](C)CCC(=O)O)CC[C@@H]23)[C@@]2(C)CC[C@@H](O)C[C@@H]12 | Not active; No Statistically Significant Decrease Observed | Not active; No Statistically Significant Decrease Observed
